# Test results from patent US7306804B2 (priority 1998, dated 2007).
# “Also recorded” adds a separate entry of the source. Read-outs that look alike come from different tables or passages of the source.
# What was measured:
# [1] = system: HIV envelope protein gp160; settings: cited from earlier work; for T-cell proliferation responses: two F1 hybrid mouse strains (B6C3 F1 and A.SW×Balb/c F1); for T-cell proliferative response to immunizing peptide and HIV Env protein gp160 / antibodies recognizing recombinant gp160: immunized mice
# PBMCs = settings: cited from earlier work
# [2] = system: peptide-pulsed autologous EBV-transformed B cells (B-LCL); format: cell-based, human
# [3] = system: PBMCs from control and HIV-1 infected chimpanzees; format: cell-based, chimpanzee
# [4] = system: PBMCs from normal and HIV-positive individuals; format: cell-based, human
# [5] = system: anti-peptide antibodies in serum; format: binding, chimpanzee; set-up: key: +, Positive (Titer > 1:100); −, Negative (Titer < 1:100)
# [6] = system: anti-peptide antibodies in serum; format: binding, human; set-up: key to Anti-peptide antibody response: +, Positive (titer above control); −, Negative (titer below control)
sequence,measurement,setting,value
LWDQSLKPCVKLT [Peptide 111],T-cell proliferation responses,[1],relatively good T-cell proliferation responses
same,proliferative response of PBMCs,PBMCs; three monkeys immunized with peptide cocktail,good response
YLRDQQLLGIWGC [Peptide 61],% Specific lysis at various E:T ratios 12.5:1,[2],4.0%
same,% Specific lysis at various E:T ratios 25:1,[2],4.0%
same,% Specific lysis at various E:T ratios 50:1,[2],14.5%
same,% Specific lysis at various E:T ratios 100:1,[2],15.0%
same,CTL activity against peptide-pulsed autologous B-LCLs,[2],significant CTL activity
same,specific lysis of peptide-pulsed target cells,[2],also observed
same,T-cell proliferative response to immunizing peptide and HIV Env protein gp160,[1],induced a T-cell response against both the immunizing peptide and the HIV Env protein
same,antibodies recognizing recombinant gp160,[1],did not produce antibodies that could recognize recombinant gp160
same,T-cell proliferation responses,[1],relatively good T-cell proliferation responses
same,proliferative response of PBMCs,"PBMCs; monkey, in vivo",PMBCs from two of the monkeys showed good proliferative responses
CRIKQIINMWQGVGKAMYA [Peptide 122],T-cell proliferative response,"[3]; chimpanzee 40, control normal","− (−, Negative (SI < 2.0))"
same,T-cell proliferative response,"[3]; chimpanzee 62, HIV-infected","− (−, Negative (SI < 2.0))"
same,T-cell proliferative response,"[3]; chimpanzee 69, HIV-infected","+ (+, Positive (Stimulation Index [SI] > 2.0))"
same,T-cell proliferative response,"[3]; chimpanzee 73, control normal","− (−, Negative (SI < 2.0))"
same,T-cell proliferative response,"[3]; chimpanzee 80, HIV-infected","+ (+, Positive (Stimulation Index [SI] > 2.0))"
same,T-cell proliferative response,"[3]; chimpanzee 99, HIV-infected","− (−, Negative (SI < 2.0))"
same,T-cell proliferative response,"[3]; chimpanzee 100, HIV-infected","+ (+, Positive (Stimulation Index [SI] > 2.0))"
same,T-cell proliferative response,"[3]; chimpanzee 139, HIV-infected","− (−, Negative (SI < 2.0))"
same,T-cell proliferative response,"[3]; chimpanzee 175, HIV-infected","+ (+, Positive (Stimulation Index [SI] > 2.0))"
same,T-cell proliferative response,"[3]; chimpanzee 247, HIV-infected","− (−, Negative (SI < 2.0))"
same,T-cell proliferative response,"[3]; chimpanzee 310, HIV-infected","− (−, Negative (SI < 2.0))"
same,number of HIV+ individuals with positive proliferative responses,[4]; 17 HIV+ individuals tested,seven
same,T-cell proliferative response,[4]; HIV-positive patient MSf,"− (−, Negative (SI < 2.0))"
same,T-cell proliferative response,[4]; HIV-positive patient MSm,"− (−, Negative (SI < 2.0))"
same,T-cell proliferative response,[4]; HIV-positive patient eight,"− (−, Negative (SI < 2.0))"
same,T-cell proliferative response,[4]; HIV-positive patient eleven,"− (−, Negative (SI < 2.0))"
same,T-cell proliferative response,[4]; HIV-positive patient fifteen,"+ (+, Positive (Stimulation Index [SI] > 2.0))"
same,T-cell proliferative response,[4]; HIV-positive patient five,"− (−, Negative (SI < 2.0))"
same,T-cell proliferative response,[4]; HIV-positive patient four,"− (−, Negative (SI < 2.0))"
same,T-cell proliferative response,[4]; HIV-positive patient fourteen,"+ (+, Positive (Stimulation Index [SI] > 2.0))"
same,T-cell proliferative response,[4]; HIV-positive patient nine,"+ (+, Positive (Stimulation Index [SI] > 2.0))"
same,T-cell proliferative response,[4]; HIV-positive patient one,"+ (+, Positive (Stimulation Index [SI] > 2.0))"
same,T-cell proliferative response,[4]; HIV-positive patient seven,"− (−, Negative (SI < 2.0))"
same,T-cell proliferative response,[4]; HIV-positive patient six,"− (−, Negative (SI < 2.0))"
same,T-cell proliferative response,[4]; HIV-positive patient ten,"+ (+, Positive (Stimulation Index [SI] > 2.0))"
same,T-cell proliferative response,[4]; HIV-positive patient thirteen,"− (−, Negative (SI < 2.0))"
same,T-cell proliferative response,[4]; HIV-positive patient three,"+ (+, Positive (Stimulation Index [SI] > 2.0))"
same,T-cell proliferative response,[4]; HIV-positive patient twelve,"+ (+, Positive (Stimulation Index [SI] > 2.0))"
same,T-cell proliferative response,[4]; HIV-positive patient two,"− (−, Negative (SI < 2.0))"
same,T-cell proliferative response,[4]; Normal-1 (HIV-seronegative),"− (−, Negative (SI < 2.0))"
same,T-cell proliferative response,[4]; Normal-2 (HIV-seronegative),"− (−, Negative (SI < 2.0))"
same,Anti-peptide antibody response,[5],−
same,Anti-peptide antibody response,"[5]; chimpanzee 40, control normal",−
same,Anti-peptide antibody response,"[5]; chimpanzee 73, control normal",−
same,number of HIV+ individuals with positive antibody titers (<1:1280),[6],None
same,Anti-peptide antibody response,[6]; HIV-positive patient MSf,−
same,Anti-peptide antibody response,[6]; HIV-positive patient MSm,−
same,Anti-peptide antibody response,[6]; HIV-positive patient eight,−
same,Anti-peptide antibody response,[6]; HIV-positive patient eleven,−
same,Anti-peptide antibody response,[6]; HIV-positive patient fifteen,−
same,Anti-peptide antibody response,[6]; HIV-positive patient five,−
same,Anti-peptide antibody response,[6]; HIV-positive patient four,−
same,Anti-peptide antibody response,[6]; HIV-positive patient fourteen,−
same,Anti-peptide antibody response,[6]; HIV-positive patient nine,−
same,Anti-peptide antibody response,[6]; HIV-positive patient one,−
same,Anti-peptide antibody response,[6]; HIV-positive patient seven,−
same,Anti-peptide antibody response,[6]; HIV-positive patient six,−
same,Anti-peptide antibody response,[6]; HIV-positive patient ten,−
same,Anti-peptide antibody response,[6]; HIV-positive patient thirteen,−
same,Anti-peptide antibody response,[6]; HIV-positive patient three,−
same,Anti-peptide antibody response,[6]; HIV-positive patient twelve,−
same,Anti-peptide antibody response,[6]; HIV-positive patient two,−
same,Anti-peptide antibody response,[6]; Normal-1 (HIV-seronegative),−
same,Anti-peptide antibody response,[6]; Normal-2 (HIV-seronegative),−
GTGPCTNVSTVQC [Peptide 116],T-cell proliferation responses,[1],relatively good T-cell proliferation responses
same,proliferative response of PBMCs,"PBMCs; monkey, in vivo",weak responses
FLGFLGAAGSTMGAASLTLTVQARQ [Peptide 63],% Specific lysis at various E:T ratios 12.5:1,[2],0%
same,% Specific lysis at various E:T ratios 25:1,[2],7.9%
same,% Specific lysis at various E:T ratios 50:1,[2],8.8%
same,% Specific lysis at various E:T ratios 100:1,[2],17.6%
same,CTL activity against peptide-pulsed autologous B-LCLs,[2],significant CTL activity
same,specific lysis of peptide-pulsed target cells,[2],also observed
same,T-cell proliferative response to immunizing peptide and HIV Env protein gp160,[1],induced a T-cell response against both the immunizing peptide and the HIV Env protein; also recorded: induced proliferative responses to both the immunizing peptide
same,antibodies recognizing recombinant gp160,[1],did not produce antibodies that could recognize recombinant gp160
same,T-cell proliferation responses,[1],relatively good T-cell proliferation responses
same,proliferative response of PBMCs,"PBMCs; monkey, in vivo",good response
